Values after ≈ are worked out from the molar mass of the structure shown. Active and inactive are the calls of the source. No cut-off for these calls is given here.
What was measured:
Melanophore = assay: Induction of melanosome dispersion in melanophores; format: functional, cell-based; settings: Xenopus laevis
[1] = Permeability in artificial membrane assay; format: ADME, cell membranes
Monocyte = assay: Inhibition of LPS-stimulated TNFalpha secretion in human primary monocytes; format: functional, cell-based
[2] = biological target: T1, G-protein coupled bile acid receptor 1 (Rattus norvegicus, UniProt Q80T02); assay: Agonist activity at rat TGR5 expressed in melanophores assessed as melanosome dispersion by melanophore assay; format: functional
T1 sequence (Q80T02 whole entry): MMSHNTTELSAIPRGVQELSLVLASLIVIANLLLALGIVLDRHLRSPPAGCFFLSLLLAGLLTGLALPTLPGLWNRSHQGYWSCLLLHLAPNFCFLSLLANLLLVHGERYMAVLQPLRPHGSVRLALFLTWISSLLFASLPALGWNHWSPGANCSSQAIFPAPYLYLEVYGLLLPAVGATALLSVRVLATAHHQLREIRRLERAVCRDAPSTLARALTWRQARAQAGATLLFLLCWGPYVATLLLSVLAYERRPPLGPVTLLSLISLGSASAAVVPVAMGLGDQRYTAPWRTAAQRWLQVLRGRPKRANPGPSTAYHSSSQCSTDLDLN

[3] = Volume of distribution at steady state in CD1 rat at 2.5 mg/kg, iv or 5 mg/kg, po; format: ADME, organism-based; settings: in vivo, read-out: Vdss
[4] = Intrinsic clearance in dog hepatocytes; format: ADME, cell-based, Canis lupus familiaris, Liver, Hepatocyte
Canis familiaris [5] = assay: Decrease in portal vein glucose levels in intrajejeunally dosed conscious Beagle dog at 1 mg.kg co-administered with glucose challenge; format: functional, organism-based; settings: Canis lupus familiaris
[6] = Agonist activity at canine TGR5 expressed in melanophores assessed as melanosome dispersion by melanophore assay; format: functional, Canis lupus familiaris
[7] = Aqueous solubility of the compound; format: physicochemical; settings: buffer
Cytochrome P450 2D6 = Cytochrome P450 2D6 (Homo sapiens, UniProt P10635); assay: Inhibition of CYP2D6; format: ADME
Cytochrome P450 2D6, sequence (P10635 whole entry): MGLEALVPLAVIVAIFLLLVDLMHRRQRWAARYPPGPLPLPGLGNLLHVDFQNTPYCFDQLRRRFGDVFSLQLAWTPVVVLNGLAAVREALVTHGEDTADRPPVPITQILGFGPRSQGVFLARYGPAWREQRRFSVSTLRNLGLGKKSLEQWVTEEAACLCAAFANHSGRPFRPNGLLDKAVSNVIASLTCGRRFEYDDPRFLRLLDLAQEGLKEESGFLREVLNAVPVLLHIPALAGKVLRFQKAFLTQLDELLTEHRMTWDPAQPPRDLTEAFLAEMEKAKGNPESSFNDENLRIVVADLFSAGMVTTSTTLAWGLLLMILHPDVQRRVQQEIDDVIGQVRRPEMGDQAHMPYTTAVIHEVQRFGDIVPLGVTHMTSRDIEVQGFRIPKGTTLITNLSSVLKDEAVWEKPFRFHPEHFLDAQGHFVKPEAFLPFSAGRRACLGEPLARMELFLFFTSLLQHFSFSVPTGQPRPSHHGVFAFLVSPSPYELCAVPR

[8] = Half life in CD1 rat at 2.5 mg/kg, iv or 5 mg/kg, po; format: ADME, organism-based; settings: in vivo
[9] = Oral bioavailability in CD1 rat 5 mg/kg; format: ADME, organism-based; settings: in vivo
Cytochrome P450 2C9 = Cytochrome P450 2C9 (Homo sapiens, UniProt P11712); assay: Inhibition of CYP2C9; format: ADME
Cytochrome P450 2C9, sequence (P11712 whole entry): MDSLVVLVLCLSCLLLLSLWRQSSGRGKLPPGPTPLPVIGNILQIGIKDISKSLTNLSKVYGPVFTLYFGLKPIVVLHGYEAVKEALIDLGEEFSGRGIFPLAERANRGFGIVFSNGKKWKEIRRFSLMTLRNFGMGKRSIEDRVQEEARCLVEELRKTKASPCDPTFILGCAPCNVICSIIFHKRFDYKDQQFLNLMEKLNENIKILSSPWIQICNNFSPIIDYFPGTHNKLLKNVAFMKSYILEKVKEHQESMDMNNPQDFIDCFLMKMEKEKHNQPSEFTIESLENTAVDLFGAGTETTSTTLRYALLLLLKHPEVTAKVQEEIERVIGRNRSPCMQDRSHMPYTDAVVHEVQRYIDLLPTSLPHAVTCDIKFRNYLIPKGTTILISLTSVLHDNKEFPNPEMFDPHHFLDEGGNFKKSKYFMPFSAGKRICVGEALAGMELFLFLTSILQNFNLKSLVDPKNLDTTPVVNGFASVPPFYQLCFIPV

U2OS = assay: Increase in MRE/CRE-driven gene expression in human U2OS cells by luciferase reporter gene assay; format: functional, cell-based
Canis familiaris [10] = assay: Increase in GLP1 secretion in hepatic portal vein of intrajejeunally dosed conscious Beagle dog at 1 mg.kg co-administered with glucose challenge; format: functional, organism-based; settings: Canis lupus familiaris
[11] = Intrinsic clearance in rat hepatocytes; format: ADME, cell-based, Liver, Hepatocyte
[12] = Clearance in CD1 rat at 2.5 mg/kg, iv or 5 mg/kg, po; format: ADME, organism-based; settings: in vivo
[13] = Volume of distribution at steady state in dog at 3 mg/kg, iv or 30 mg/kg, po; format: ADME, organism-based, Canis lupus familiaris; settings: in vivo, read-out: Vdss
[14] = Oral bioavailability in dog at 30 mg/kg; format: ADME, organism-based, Canis lupus familiaris; settings: in vivo
[15] = Oral bioavailability in CD1 rat at 30 mg/kg; format: ADME, organism-based; settings: in vivo
[16] = Clearance in dog at 3 mg/kg, iv or 30 mg/kg, po; format: ADME, organism-based, Canis lupus familiaris; settings: in vivo
[17] = Clearance in CD1 rat at 3 mg/kg, iv or 30 mg/kg, po; format: ADME, organism-based; settings: in vivo
[18] = Volume of distribution at steady state in CD1 rat at 3 mg/kg, iv or 30 mg/kg, po; format: ADME, organism-based; settings: in vivo, read-out: Vdss
[19] = Half life in dog at 3 mg/kg, iv or 30 mg/kg, po; format: ADME, organism-based, Canis lupus familiaris; settings: in vivo
[20] = Half life in CD1 rat at 3 mg/kg, iv or 30 mg/kg, po; format: ADME, organism-based; settings: in vivo

Compound: Cc1onc(-c2ccccc2Cl)c1C(=O)N(C)c1ccc(Cl)cc1
- EC50 (Melanophore): 20 µM
- permeability [1]: 422 nanometer/sec
- IC50 (Monocyte): 0.158 µM
- EC50 [2]: 2 µM
- Vd [3]: 7.1 L/kg
- CLint [4]: 90 mL/min/g
- Activity (Canis familiaris [5]): Active
- pEC50 [6]: 7.2
- solubility [7]: 246 µM (≈ 88.9 µg/mL)
- IC50 (Cytochrome P450 2D6): > 10 µM
- half-life [8]: 6.6 h
- bioavailability [9]: 1%
- IC50 (Cytochrome P450 2C9): > 10 µM
- EC50 (U2OS): > 50.1 µM
- Activity (Canis familiaris [10]): Active
- CLint [11]: 48 mL/min/g
- clearance [12]: 85 mL/min/kg

Compound: CCN(C(=O)c1c(-c2ccccc2Cl)noc1C)c1cccc(Cl)c1
- permeability [1]: 310 nanometer/sec
- solubility [7]: 134 µM (≈ 50.3 µg/mL)

Compound: Cc1ccc(N(C)C(=O)c2c(-c3ccccc3Cl)noc2C)cc1Cl
- permeability [1]: 257 nanometer/sec
- CLint [4]: 111 mL/min/g
- Vd [13]: 8.6 L/kg
- solubility [7]: 112 µM (≈ 42 µg/mL)
- bioavailability [14]: 0.3%
- bioavailability [15]: < 1%
- clearance [16]: 39 mL/min/kg
- clearance [17]: 148 mL/min/kg
- Vd [18]: 40 L/kg
- CLint [11]: 54 mL/min/g
- half-life [19]: 5.2 h
- half-life [20]: 8.7 h

— ChEMBL document CHEMBL1154698, “Discovery of 3-aryl-4-isoxazolecarboxamides as TGR5 receptor agonists” (J Med Chem, 2009)
